Results: PMC6497469 (Infection and Drug Resistance, 2019)

How the values were obtained:
[1] = molecular target: T1, PA0847 (Pseudomonas aeruginosa, UniProt Q9I594); assay: binding of c-di-GMP to purified PAS-GGDEF
T1 sequence (Q9I594 440-735 limits assumed): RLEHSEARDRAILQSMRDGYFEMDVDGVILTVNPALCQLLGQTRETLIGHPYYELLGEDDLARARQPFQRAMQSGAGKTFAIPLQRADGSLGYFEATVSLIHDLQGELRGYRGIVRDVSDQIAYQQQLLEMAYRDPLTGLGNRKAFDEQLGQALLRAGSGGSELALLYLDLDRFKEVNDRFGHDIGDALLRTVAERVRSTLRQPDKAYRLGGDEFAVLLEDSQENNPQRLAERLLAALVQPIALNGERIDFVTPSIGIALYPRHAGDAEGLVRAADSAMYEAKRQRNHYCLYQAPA

[2] = molecular target: PA0847 PAS-GGDEF dual domains (Pseudomonas aeruginosa PAO1); assay: SEC
[3] = molecular target: T1, PA0847; assay: titration of GTPγS to purified PAS-GGDEF; type: binding

Nc1nc2c(ncn2[C@@H]2O[C@@H]3CO[P@](=O)(O)O[C@H]4[C@@H](O)[C@H](n5cnc6c(=O)[nH]c(N)nc65)O[C@@H]4CO[P@](=O)(O)O[C@H]3[C@H]2O)c(=O)[nH]1 [c-di-GMP]
Kd [1]: ~59 µM

PA0847 PAS-GGDEF dual domains (domain or fragment)
stoichiometry N [2]: 2

Nc1nc2c(ncn2[C@@H]2O[C@H](COP(=O)(O)OP(=O)(O)OP(O)(O)=S)[C@@H](O)[C@H]2O)c(=O)[nH]1 [GTPγS]
Kd [3]: 15.3 ± 1.3 µM
